This is an account of results in patent US8974814B2, “Layered drug delivery polymer monofilament fibers” (California Institute of Technology, priority 2007, dated 2015).

The nature of data set [1]: Isothermal titration calorimetry of octanoic acid with cyclodextrin. Format: binding. As to conditions: 1:1 complex, DPBS. The protocol:
The binding energy between octanoic acid and -cyclodextrin (-CD) was determined by isothermal titration calorimetry. Briefly, solutions used of […]-CD and 0.2 M octanoic acid were made in DPBS. Ten injections of […] each of the octanoic acid solution were made into 1.37 ml of the cyclodextrin in a Microcal ITC unit. A 1:1 complex is formed with an equilibrium constant of 1900.
On the technique in general: Isothermal titration calorimetry measures the heat released or taken up as one component is titrated into another.

A short description of data set [2]: Levofloxacin stability on formulation at elevated temperature / autoclaving. Format: physicochemical. As to conditions: HPLC, solution equilibrated at 60° C. The text has this:
Wet-spinning fibers from a solution of levofloxacin and PLGA results in a product that is porous with a rough surface (on the sub-micron length scale). The internal morphology of the fiber is consistent with fiber prepared in previous work via wet-spinning. (See, e.g., Gao, H., et al., Journal of Controlled Release 2007; 118(3):325-332, the disclosure of which is incorporated herein by reference.) The protuberances on the surface of the fiber are likely the result of the drug forming aggregates on the surface, and/or by the drug distorting the polymer matrix at the surface. Fiber B has larger more discrete protuberances relative to fibers A and C. This may be due to fiber B having suspended particles of drug present in the polymer solution before wet spinning. […] Fiber C was manufactured at an elevated temperature to absolutely assure total drug dissolution in the polymer/DMSO solution. […] (See e.g., Fujimoto, K., et al., Jpn J Pharmacol 1995; 69(4):443-445, the disclosure of which is incorporated herein by reference.)

Take `CCCCCCCC(=O)O` [octanoic acid]: the equilibrium constant in data set [1] was 1900.

For `C[C@H]1COc2c(N3CCN(C)CC3)c(F)cc3c(=O)c(C(=O)O)cn1c23` [Levofloxacin, levofloxacin], in data set [2], the “stability after formulation at higher temperatures” value is listed as “no other peaks were observed in the HPLC chromatogram”.
